Results on two compounds are retold here after patent US20180221463A1, “Modified NK Cells and Uses Thereof” (priority 2017, published 2018).

The target in data set [1] is T1, SMAD3 (Homo sapiens, UniProt P84022).
T1 construct: NK-92 cells were pretreated with SIS3 at various concentrations for 2 hours; endogenous in cells; host or cells: NK-92 (human NK cell line)
As to the kind of experiment: Blockade of Smad3 in NK-92 cells under TGF-β1: E4BP4 and IFN-γ levels. In kind it is cell-based. The conditions noted are these: high TGF-β1 (5 ng/ml), SIS3 5 μM. As for the experimental part:
To reveal the regulatory role of SMAD3 and E4BP4 in the production of IFN-γ in NK-92 cells, a specific inhibitor of SMAD3 known as SIS3 (Sigma) was used in this study. Briefly, NK-92 cells were pretreated with SIS3 at various concentrations for 2 hours. The cells were then treated with TGF-β1 at the final concentration of 5 ng/ml for 45 min and harvested for detection of the phosphorylation level of SMAD3 with western blot. The dosage of SIS3 that induced the maximum effect of phosphorylation inhibition of SMAD3 was determined as the optimal dosage of SIS3 used in further experiment. NK-92 cells were then pretreated with or without SIS3 at the determined concentration for 2 hours followed by stimulation with TGF-β1 at the final concentration of 5 ng/ml for 12 hours. The cells were harvested to detect the level of E4BP4 and IFN-γ.

Data set [2] concerns SMAD3. As to the kind of experiment: SMAD3 knockdown in NK-92 cells, real-time PCR and western blot. It is filed as cell-based, human. Here is the method: NK-92 cells were transduced with rLV-hSMAD3 and selected with puromycin (InvivoGen). Briefly, NK-92 cells were seeded in a 24-well plate at a density of 1×10^6/ml and mixed with ploybrene (Santa Cruz) at final concentration of 5 ug/ml and rLV-hSmad3 at MOI (multiplicity of infection) equal to 50 overnight at 37° C. The transduced cells were then expanded in complete medium and selected with puromycin at a final concentration of 2 ug/ml. The expression level of SMAD3 in the puromycin resistant clone was determined by real-time PCR with corresponding primers (Table 2) and Western blot analysis with rabbit anti human SMAD3 antibody (Abcam) respectively.
Total RNA from cells was isolated using the PureLink™ RNA Mini kit (Life Technologies) according to the manufacturer's instruction. The reverse transcription reaction was conducted with C1000 thermal cycler. The cDNA was then diluted with 40 ul RNase-free water and used as the template in real-time polymerase chain reaction.
(In qPCR the cycle at which signal appears reflects the starting amount.)

T1 sequence (P84022 whole entry): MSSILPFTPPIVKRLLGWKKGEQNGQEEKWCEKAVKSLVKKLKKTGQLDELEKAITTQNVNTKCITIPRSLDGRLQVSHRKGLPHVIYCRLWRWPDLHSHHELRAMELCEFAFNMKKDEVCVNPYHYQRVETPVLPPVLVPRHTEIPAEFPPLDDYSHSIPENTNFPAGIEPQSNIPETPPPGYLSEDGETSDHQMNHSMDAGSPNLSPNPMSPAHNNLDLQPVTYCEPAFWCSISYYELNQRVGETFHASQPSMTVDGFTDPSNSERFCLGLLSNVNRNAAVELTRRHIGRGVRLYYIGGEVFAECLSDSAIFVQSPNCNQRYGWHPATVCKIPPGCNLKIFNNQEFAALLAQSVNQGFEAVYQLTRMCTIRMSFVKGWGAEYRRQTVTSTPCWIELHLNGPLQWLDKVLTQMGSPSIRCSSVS

On to `COc1cc2c(cc1OC)CN(C(=O)/C=C/c1c(-c3ccccc3)n(C)c3ncccc13)CC2` [SIS3], for which, in data set [1], the “expressions of E4BP4 mRNA and protein” value is “markedly increase”; the “production of IFN-γ” value is “markedly increase”.

Consider “shRNA-hSmad3: shRNA specifically against human SMAD3 mRNA, sequence GGAGAAATGGTGCGAGAAG (Table 3), delivered by lentivirus (shRNA hairpin; lentiviral delivery)”, for which the “mRNA expression of SMAD3” value in data set [2] (real-time PCR) is reported as “largely down-regulated”. The “decrease in SMAD3 protein” value in data set [2] (western blot) is “more than 70%”.
